The CheMixHub viscosity set

Assay: xn = mol fraction of the nth substance listed

CCCCCCCCO + CCOC(C)=O
viscosity [mPa·s]
Details | 298.15 K | 303.15 K | 308.15 K | 313.15 K
101 kPa, x1 = 0.0646 | 0.512 | 0.484 | 0.455 | 0.429
101 kPa, x1 = 0.1344 | 0.629 | 0.589 | 0.55 | 0.513
101 kPa, x1 = 0.2103 | 0.783 | 0.727 | 0.673 | 0.623
101 kPa, x1 = 0.2928 | 0.991 | 0.911 | 0.834 | 0.766
101 kPa, x1 = 0.3832 | 1.279 | 1.164 | 1.054 | 0.958
101 kPa, x1 = 0.4823 | 1.689 | 1.519 | 1.36 | 1.223
101 kPa, x1 = 0.5917 | 2.298 | – | 1.806 | 1.605
101 kPa, x1 = 0.713 | 3.246 | 2.844 | 2.482 | 2.179
101 kPa, x1 = 0.8483 | 4.801 | 4.144 | 3.563 | 3.083
101.33 kPa, x2 = 0.141 | 4.383 | 3.809 | 3.324 | –
101.33 kPa, x2 = 0.2701 | 2.825 | 2.512 | 2.215 | –
101.33 kPa, x2 = 0.3878 | 1.985 | 1.777 | 1.596 | –
101.33 kPa, x2 = 0.4964 | 1.449 | 1.292 | 1.152 | –
101.33 kPa, x2 = 0.5965 | 1.088 | 0.992 | 0.907 | –
101.33 kPa, x2 = 0.6891 | 0.841 | 0.798 | 0.724 | –
101.33 kPa, x2 = 0.7641 | 0.712 | 0.653 | 0.606 | –
101.33 kPa, x2 = 0.8552 | 0.585 | 0.542 | 0.51 | –
101.33 kPa, x2 = 0.9301 | 0.496 | 0.468 | 0.446 | –

CCOC(F)(F)C(F)(C(F)(F)F)C(F)(F)F + CCOC(F)(F)C(F)(F)C(F)(F)C(F)(F)F
100 kPa, x2 = 0.422
Details | viscosity [mPa·s]
298.16 K | 0.6423
303.18 K | 0.5987

CC(C)(C)N + CCOCCO
308.15 K, 101 kPa
Details | viscosity [mPa·s]
x2 = 0.1082 | 0.5474
x2 = 0.2145 | 0.6798
x2 = 0.3189 | 0.8102
x2 = 0.4214 | 0.9309
x2 = 0.5221 | 1.046
x2 = 0.6211 | 1.149
x2 = 0.7182 | 1.245
x2 = 0.8138 | 1.327
x2 = 0.9077 | 1.399

BrC(Br)Br + CN(C)C=O
Details | viscosity [mPa·s]
298 K, 101.3 kPa, x1 = 0.1418 | 1.075
298 K, 101.3 kPa, x1 = 0.2704 | 1.355
298 K, 101.3 kPa, x1 = 0.463 | 1.794
298 K, 101.3 kPa, x1 = 0.6145 | 2.007
298 K, 101.3 kPa, x1 = 0.7144 | 2.037
298 K, 101.3 kPa, x1 = 0.818 | 2.016
298.15 K, 101 kPa, x1 = 0.1458 | 1.048
298.15 K, 101 kPa, x1 = 0.1971 | 1.237
298.15 K, 101 kPa, x1 = 0.2942 | 1.486
298.15 K, 101 kPa, x1 = 0.3961 | 1.703
298.15 K, 101 kPa, x1 = 0.4962 | 1.956
298.15 K, 101 kPa, x1 = 0.5972 | 2.102
298.15 K, 101 kPa, x1 = 0.6959 | 2.122
298.15 K, 101 kPa, x1 = 0.7985 | 2.147
298.15 K, 101 kPa, x1 = 0.8992 | 2.074
303.15 K, 101 kPa, x1 = 0.1458 | 0.9843
303.15 K, 101 kPa, x1 = 0.1971 | 1.162
303.15 K, 101 kPa, x1 = 0.2942 | 1.371
303.15 K, 101 kPa, x1 = 0.3961 | 1.567
303.15 K, 101 kPa, x1 = 0.4962 | 1.793
303.15 K, 101 kPa, x1 = 0.5972 | 1.927
303.15 K, 101 kPa, x1 = 0.6959 | 1.953
303.15 K, 101 kPa, x1 = 0.7985 | 1.966
303.15 K, 101 kPa, x1 = 0.8992 | 1.934
308.15 K, 101 kPa, x1 = 0.1458 | 0.9091
308.15 K, 101 kPa, x1 = 0.1971 | 1.066
308.15 K, 101 kPa, x1 = 0.2942 | 1.267
308.15 K, 101 kPa, x1 = 0.3961 | 1.443
308.15 K, 101 kPa, x1 = 0.4962 | 1.643
308.15 K, 101 kPa, x1 = 0.5972 | 1.765
308.15 K, 101 kPa, x1 = 0.6959 | 1.801
308.15 K, 101 kPa, x1 = 0.7985 | 1.839
308.15 K, 101 kPa, x1 = 0.8992 | 1.797
313.15 K, 101 kPa, x1 = 0.1458 | 0.8479
313.15 K, 101 kPa, x1 = 0.1971 | 1
313.15 K, 101 kPa, x1 = 0.2942 | 1.173
313.15 K, 101 kPa, x1 = 0.3961 | 1.329
313.15 K, 101 kPa, x1 = 0.4962 | 1.513
313.15 K, 101 kPa, x1 = 0.5972 | 1.622
313.15 K, 101 kPa, x1 = 0.6959 | 1.66
313.15 K, 101 kPa, x1 = 0.7985 | 1.705
313.15 K, 101 kPa, x1 = 0.8992 | 1.679
318 K, 101.33 kPa, x1 = 0.1317 | 0.819
318 K, 101.33 kPa, x1 = 0.2705 | 1.046
318 K, 101.33 kPa, x1 = 0.4636 | 1.313
318 K, 101.33 kPa, x1 = 0.6142 | 1.471
318 K, 101.33 kPa, x1 = 0.7204 | 1.518
318 K, 101.33 kPa, x1 = 0.8296 | 1.519

C=Cc1ccccc1 + CN(C)C=O
viscosity [mPa·s], 101.33 kPa
Details | x1 = 0.109 | x1 = 0.2013 | x1 = 0.2959 | x1 = 0.3998 | x1 = 0.5052 | x1 = 0.6012 | x1 = 0.6979 | x1 = 0.8049 | x1 = 0.8976
298.15 K | 0.831 | 0.845 | 0.854 | 0.858 | 0.86 | 0.856 | 0.847 | 0.825 | 0.794
303.15 K | 0.78 | 0.79 | 0.801 | 0.804 | 0.802 | 0.798 | 0.79 | 0.768 | 0.735
308.15 K | 0.732 | 0.742 | 0.749 | 0.75 | 0.749 | 0.746 | 0.739 | 0.717 | 0.685

CC(=O)c1ccc(Cl)cc1 + CN(C)c1ccccc1
viscosity [mPa·s], 101 kPa
Details | 303.15 K | 308.15 K
x2 = 0.0685 | 2.238 | 2.175
x2 = 0.1369 | 2.129 | 2.065
x2 = 0.2085 | 2.019 | 1.954
x2 = 0.2801 | 1.913 | 1.849
x2 = 0.3517 | 1.816 | 1.752
x2 = 0.4754 | 1.663 | 1.597
x2 = 0.551 | 1.576 | 1.511
x2 = 0.6023 | 1.53 | 1.46
x2 = 0.6538 | 1.478 | 1.409
x2 = 0.7316 | 1.404 | 1.335
x2 = 0.7852 | 1.355 | 1.288
x2 = 0.8376 | 1.307 | 1.243
x2 = 0.9175 | 1.24 | 1.177

CC(=O)c1ccc(Cl)cc1 + CNC(C)=O
308.15 K, 101 kPa
Details | viscosity [mPa·s]
x1 = 0.0644 | 3.273
x1 = 0.1311 | 3.223
x1 = 0.2036 | 3.141
x1 = 0.2825 | 3.035
x1 = 0.3696 | 2.906
x1 = 0.4664 | 2.765
x1 = 0.5774 | 2.604
x1 = 0.7003 | 2.452
x1 = 0.8405 | 2.331
